PubChem BioAssay AID2060900 (Molecular Pharmacology Branch, DTP, NCI, 2025)
Values joined by “and” are separate entries in the source; they are usually repeats but may differ in a detail not shown here. Equal values may be shown once. Each block holds one compound with its values, some of them ahead of it.

Tested on: 521955-158-R2-J5-PDC complex spheroids, viability
Assay: Anticancer human tumor 521955-158-R2-J5-PDC patient-derived pancreatic carcinoma cell line growth inhibition [RAS]
Conditions: for viability, T/C: stronger effect = lower value
Summary of the method: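 Tumour cells grown as complex spheroids with HUVEC endothelial cells and mesenchymal stem cells, treated with RAS pathway inhibitor combinations. Each agent spans half-log steps from near clinical Cmax, or 10 microM where Cmax is unknown.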

[1] = curve of first compound, second compound 0.00316 µM
[2] = curve of first compound, second compound 0.01 µM
[3] = curve of first compound, second compound 0.0316 µM
[4] = curve of first compound, second compound 0.1 µM
[5] = curve of first compound, second compound 0.316 µM
[6] = curve of first compound, second compound 1 µM
[7] = second compound 0.00316 µM, first compound 0.0316 µM
[8] = second compound 0.00316 µM, first compound 0.1 µM
[9] = second compound 0.00316 µM, first compound 0.316 µM
[10] = second compound 0.00316 µM, first compound 1 µM
[11] = second compound 0.00316 µM, first compound 3.16 µM
[12] = second compound 0.00316 µM, first compound 10 µM
[13] = second compound 0.01 µM, first compound 0.0316 µM
[14] = second compound 0.01 µM, first compound 0.1 µM
[15] = second compound 0.01 µM, first compound 0.316 µM
[16] = second compound 0.01 µM, first compound 1 µM
[17] = second compound 0.01 µM, first compound 3.16 µM
[18] = second compound 0.01 µM, first compound 10 µM
[19] = second compound 0.0316 µM, first compound 0.0316 µM
[20] = second compound 0.0316 µM, first compound 0.1 µM
[21] = second compound 0.0316 µM, first compound 0.316 µM
[22] = second compound 0.0316 µM, first compound 1 µM
[23] = second compound 0.0316 µM, first compound 3.16 µM
[24] = second compound 0.0316 µM, first compound 10 µM
[25] = second compound 0.1 µM, first compound 0.0316 µM
[26] = second compound 0.1 µM, first compound 0.1 µM
[27] = second compound 0.1 µM, first compound 0.316 µM
[28] = second compound 0.1 µM, first compound 1 µM
[29] = second compound 0.1 µM, first compound 3.16 µM
[30] = second compound 0.1 µM, first compound 10 µM
[31] = second compound 0.316 µM, first compound 0.0316 µM
[32] = second compound 0.316 µM, first compound 0.1 µM
[33] = second compound 0.316 µM, first compound 0.316 µM
[34] = second compound 0.316 µM, first compound 1 µM
[35] = second compound 0.316 µM, first compound 3.16 µM
[36] = second compound 0.316 µM, first compound 10 µM
[37] = second compound 1 µM, first compound 0.0316 µM
[38] = second compound 1 µM, first compound 0.1 µM
[39] = second compound 1 µM, first compound 0.316 µM
[40] = second compound 1 µM, first compound 1 µM
[41] = second compound 1 µM, first compound 3.16 µM
[42] = second compound 1 µM, first compound 10 µM
[43] = curve of first compound, second compound 3.16 µM
[44] = curve of first compound, second compound 10 µM
[45] = second compound 3.16 µM, first compound 0.0316 µM
[46] = second compound 3.16 µM, first compound 0.1 µM
[47] = second compound 3.16 µM, first compound 0.316 µM
[48] = second compound 3.16 µM, first compound 1 µM
[49] = second compound 3.16 µM, first compound 3.16 µM
[50] = second compound 3.16 µM, first compound 10 µM
[51] = second compound 10 µM, first compound 0.0316 µM
[52] = second compound 10 µM, first compound 0.1 µM
[53] = second compound 10 µM, first compound 0.316 µM
[54] = second compound 10 µM, first compound 1 µM
[55] = second compound 10 µM, first compound 3.16 µM
[56] = second compound 10 µM, first compound 10 µM
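Further: compound exposure lasted seven days before the viability read.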
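Wherever viability, T/C is given: spheroids also contain HUVEC endothelial cells and mesenchymal stem cells as stroma.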

- IC50 (curve of compound): 965 nM and 466 nM and > 1000 nM
SMILES: C=CC(=O)Nc1cc(Nc2nccc(-c3cn(C)c4ccccc34)n2)c(OC)cc1N(C)CCN(C)C
- viability, T/C (compound 0.00316 µM): 101% [middle of 4 runs]
- viability, T/C (compound 0.0316 µM): 94.7% [middle of 4 runs]
- viability, T/C (compound 0.1 µM): 79.1% [middle of 4 runs]

SMILES: C#Cc1c(F)ccc2cc(O)cc(-c3ncc4c(N5CC6CCC(C5)N6)nc(OCC56CCCN5CC(F)C6)nc4c3F)c12 (centres undefined)
- viability, T/C (compound 0.0316 µM): 64.5% [middle of 8 runs]
- viability, T/C (compound 0.1 µM): 57.3% [middle of 8 runs]
- viability, T/C (compound 0.316 µM): 53.9% [middle of 8 runs]
- viability, T/C (compound 1 µM): 51.1% [middle of 8 runs]
- viability, T/C (compound 3.16 µM): 45.4% [middle of 8 runs]
- viability, T/C (compound 10 µM): 35.1% [middle of 8 runs]

- IC50 (compound alone, run of 06/10/2024): > 1000 nM
- IC50 (curve of compound): > 1000 nM
SMILES: C=CC(=O)N1CCN(c2nc(OCC3CCCN3C)nc3c(F)c(-c4nc(N)cc(C)c4C(F)(F)F)c(Cl)cc23)C(C)C1 (centres undefined)

- IC50 [1]: 1950 nM
- IC50 [2]: 2100 nM
- IC50 [3]: 2110 nM
- IC50 [4]: 2090 nM
- IC50 [5]: 2140 nM
- IC50 [6]: 2010 nM
SMILES: CCC(CC)c1cc(NC2CCC(N)C2)n2nccc2n1 (centres undefined) + C=CC(=O)N1CCN(c2nc(OCC3CCCN3C)nc3c(F)c(-c4nc(N)cc(C)c4C(F)(F)F)c(Cl)cc23)C(C)C1
- viability, T/C [7]: 95.8%
- viability, T/C [8]: 118%
- viability, T/C [9]: 122%
- viability, T/C [10]: 107%
- viability, T/C [11]: 7.09%
- viability, T/C [12]: 10.1%
- viability, T/C [13]: 104%
- viability, T/C [14]: 127%
- viability, T/C [15]: 126%
- viability, T/C [16]: 128%
- viability, T/C [17]: 8.44%
- viability, T/C [18]: 12.1%
- viability, T/C [19]: 99.1%
- viability, T/C [20]: 127%
- viability, T/C [21]: 122%
- viability, T/C [22]: 152%
- viability, T/C [23]: 9.15%
- viability, T/C [24]: 9.78%
- viability, T/C [25]: 139%
- viability, T/C [26]: 106%
- viability, T/C [27]: 142%
- viability, T/C [28]: 120%
- viability, T/C [29]: 10.2%
- viability, T/C [30]: 9.75%
- viability, T/C [31]: 145%
- viability, T/C [32]: 105%
- viability, T/C [33]: 119%
- viability, T/C [34]: 133%
- viability, T/C [35]: 11.5%
- viability, T/C [36]: 9.87%
- viability, T/C [37]: 102%
- viability, T/C [38]: 107%
- viability, T/C [39]: 125%
- viability, T/C [40]: 110%
- viability, T/C [41]: 10.1%
- viability, T/C [42]: 13%

- IC50 [1]: < 31.6 nM
- IC50 [2]: < 31.6 nM
- IC50 [3]: < 31.6 nM
- IC50 [4]: < 31.6 nM
- IC50 [5]: < 31.6 nM
- IC50 [6]: < 31.6 nM
SMILES: CC(=O)OC12COC1CC(O)C1(C)C(=O)C(O)C3=C(C)C(OC(=O)C(O)C(NC(=O)OC(C)(C)C)c4ccccc4)CC(O)(C(OC(=O)c4ccccc4)C21)C3(C)C (centres undefined) + C=CC(=O)N1CCN(c2nc(OCC3CCCN3C)nc3c(F)c(-c4nc(N)cc(C)c4C(F)(F)F)c(Cl)cc23)C(C)C1
- viability, T/C [7]: 37.3%
- viability, T/C [8]: 34.1%
- viability, T/C [9]: 24.9%
- viability, T/C [10]: 29.8%
- viability, T/C [11]: 40.8%
- viability, T/C [12]: 64.4%
- viability, T/C [13]: 38.5%
- viability, T/C [14]: 34.3%
- viability, T/C [15]: 21.5%
- viability, T/C [16]: 30.6%
- viability, T/C [17]: 41.4%
- viability, T/C [18]: 52.6%
- viability, T/C [19]: 39.7%
- viability, T/C [20]: 40.6%
- viability, T/C [21]: 28.2%
- viability, T/C [22]: 29.7%
- viability, T/C [23]: 44.9%
- viability, T/C [24]: 44.9%
- viability, T/C [25]: 34.3%
- viability, T/C [26]: 31.5%
- viability, T/C [27]: 33.1%
- viability, T/C [28]: 25.6%
- viability, T/C [29]: 35.8%
- viability, T/C [30]: 59.3%
- viability, T/C [31]: 38.4%
- viability, T/C [32]: 33.9%
- viability, T/C [33]: 21.7%
- viability, T/C [34]: 34.6%
- viability, T/C [35]: 46.1%
- viability, T/C [36]: 51.9%
- viability, T/C [37]: 31.8%
- viability, T/C [38]: 32.3%
- viability, T/C [39]: 19.1%
- viability, T/C [40]: 22%
- viability, T/C [41]: 46.3%
- viability, T/C [42]: 55.5%

- IC50 (curve of compound): > 1000 nM
SMILES: CCN1CCN(Cc2ccc(Nc3ncc(F)c(-c4cc(F)c5nc(C)n(C(C)C)c5c4)n3)nc2)CC1
- viability, T/C (compound 0.00316 µM): 102% [middle of 4 runs]
- viability, T/C (compound 0.0316 µM): 87% [middle of 4 runs]
- viability, T/C (compound 0.1 µM): 81.5% [middle of 4 runs]

- IC50 [3]: 55.4 nM
- IC50 [4]: < 31.6 nM
- IC50 [5]: < 31.6 nM
- IC50 [6]: < 31.6 nM
- IC50 [43]: < 31.6 nM
- IC50 [44]: < 31.6 nM
SMILES: CC(Nc1ccc2c(c1)OCCn1cc(N3C(=O)OCC3C(F)F)nc1-2)C(N)=O (centres undefined) + C#Cc1c(F)ccc2cc(O)cc(-c3ncc4c(N5CC6CCC(C5)N6)nc(OCC56CCCN5CC(F)C6)nc4c3F)c12
- viability, T/C [19]: 60.7%
- viability, T/C [20]: 37.6%
- viability, T/C [21]: 28.7%
- viability, T/C [22]: 17.1%
- viability, T/C [23]: 12.9%
- viability, T/C [24]: 11.9%
- viability, T/C [25]: 46.9%
- viability, T/C [26]: 31.9%
- viability, T/C [27]: 24.3%
- viability, T/C [28]: 16%
- viability, T/C [29]: 13.6%
- viability, T/C [30]: 11.3%
- viability, T/C [31]: 48.1%
- viability, T/C [32]: 35.1%
- viability, T/C [33]: 18.7%
- viability, T/C [34]: 16%
- viability, T/C [35]: 10.8%
- viability, T/C [36]: 10.2%
- viability, T/C [37]: 36%
- viability, T/C [38]: 28.7%
- viability, T/C [39]: 18.2%
- viability, T/C [40]: 16.7%
- viability, T/C [41]: 11.7%
- viability, T/C [42]: 8.56%
- viability, T/C [45]: 32.7%
- viability, T/C [46]: 25.3%
- viability, T/C [47]: 16.3%
- viability, T/C [48]: 11%
- viability, T/C [49]: 8.73%
- viability, T/C [50]: 6.29%
- viability, T/C [51]: 26.5%
- viability, T/C [52]: 16.8%
- viability, T/C [53]: 8.86%
- viability, T/C [54]: 4.7%
- viability, T/C [55]: 2.91%
- viability, T/C [56]: 1.54%

- IC50 [3]: 1370 nM
- IC50 [4]: 1160 nM
- IC50 [5]: 1080 nM
- IC50 [6]: 737 nM
- IC50 [43]: 935 nM
- IC50 [44]: 31.6 nM
SMILES: CCC(CC)c1cc(NC2CCC(N)C2)n2nccc2n1 (centres undefined) + C#Cc1c(F)ccc2cc(O)cc(-c3ncc4c(N5CC6CCC(C5)N6)nc(OCC56CCCN5CC(F)C6)nc4c3F)c12
- viability, T/C [19]: 62.2%
- viability, T/C [20]: 56%
- viability, T/C [21]: 68.2%
- viability, T/C [22]: 77.6%
- viability, T/C [23]: 5.12%
- viability, T/C [24]: 10.6%
- viability, T/C [25]: 51.8%
- viability, T/C [26]: 59.7%
- viability, T/C [27]: 65.7%
- viability, T/C [28]: 55.8%
- viability, T/C [29]: 8.07%
- viability, T/C [30]: 12.2%
- viability, T/C [31]: 56.4%
- viability, T/C [32]: 72.5%
- viability, T/C [33]: 56.3%
- viability, T/C [34]: 53%
- viability, T/C [35]: 7.76%
- viability, T/C [36]: 12.5%
- viability, T/C [37]: 47.6%
- viability, T/C [38]: 54.1%
- viability, T/C [39]: 64%
- viability, T/C [40]: 48.1%
- viability, T/C [41]: 7.46%
- viability, T/C [42]: 10.2%
- viability, T/C [45]: 53.8%
- viability, T/C [46]: 61.7%
- viability, T/C [47]: 52.2%
- viability, T/C [48]: 49.7%
- viability, T/C [49]: 4.58%
- viability, T/C [50]: 13.5%
- viability, T/C [51]: 46%
- viability, T/C [52]: 51.2%
- viability, T/C [53]: 45%
- viability, T/C [54]: 33%
- viability, T/C [55]: 4.49%
- viability, T/C [56]: 9.43%
